How the values were obtained:
C2C12 muscle cells = test: Analysis of glucose absorption (2-deoxyglucose) in differentiated C2C12 muscle cells; type: cell-based; details: test materials 10 μM, times relative to control group
Summary of the method: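 Uptake of 0.2 μCi 2-deoxyglucose over 20 min, counted radiometrically in lysed cells. Before tracer, compounds (10 μM) were applied for 30 min to C2C12 cells differentiated 6 days in 1% serum and equilibrated 3 h in 5 mM glucose KRB.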

AMPK = test: Measurement of AMPK activity by Western blot in C2C12 cells; type: cell-based; parameters: key to AMPK activity (degree of phosphorylation of serine-79 and threonine-172): fold increase in threonine-172 phosphorylation; AMPK activity (degree of phosphorylation of serine-79): unit not given here; details: 10 μM for 50 minutes; for AMPK activity (degree of phosphorylation of serine-79): footnote a: Western blot of serine-79 phosphorylation; for AMPK activity (degree of phosphorylation of serine-79 and threonine-172): no superscript: Western blot of serine-79 and threonine-172 phosphorylation; for AMPK activity (class: degree of phosphorylation of threonine-172): strong/mild/weak
Summary of the method: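 Western blot readout of AMPK Thr-172 and ACC Ser-79 phosphorylation, normalised against ERK, served as the activity measure. Cells were C2C12 after differentiation, treated 50 minutes with 10 μM test material. Grading by Thr-172 increase: ≥3-fold strong, 1-3-fold mild, <1-fold weak.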

CCOc1cc2ncnc(NCCCN3CCOCC3)c2cc1OCC [Compound 15, (6,7-Diethoxyquinazolino-4-yl)-(3-morpholino-4-ylpropyl)-amine]
Glucose absorption (C2C12 muscle cells): 0.8 | AMPK activity (degree of phosphorylation of serine-79) (AMPK): 2.3^a

COc1cc(CNc2nc(N3CCN(C)CC3)nc3ccccc23)cc(OC)c1 [Compound 306, (3,5-Dimethoxybenzyl)-[2-(4-methylpiperazino-1-yl)-quinazolino-4-yl]-amine]
Glucose absorption (C2C12 muscle cells): 0.8 | AMPK activity (degree of phosphorylation of serine-79 and threonine-172) (AMPK): 1.7

COc1cc(CNc2nc(C3CC3)nc3ccccc23)cc(OC)c1 [Compound 387, (2-Cyclopropylquinazolino-4-yl)-(3,5-dimethoxybenzyl)-amine]
Glucose absorption (C2C12 muscle cells): 1.2 | AMPK activity (degree of phosphorylation of serine-79 and threonine-172) (AMPK): 1.5

COc1ccc(CNc2nc(N3CCCCC3)nc3ccccc23)cc1OC [Compound 300, (3,4-Dimethoxybenzyl)-(2-piperidino-1-ylquinazolino-4-yl)-amine]
Glucose absorption (C2C12 muscle cells): 0.9 | AMPK activity (degree of phosphorylation of serine-79 and threonine-172) (AMPK): 1.0

COc1ccc(CNc2nc(Cc3ccccc3)nc3ccccc23)c(OC)c1 [Compound 272, (2-Benzylquinazolino-4-yl)-(2,4-dimethoxybenzyl)-amine]
Glucose absorption (C2C12 muscle cells): 0.4 | AMPK activity (degree of phosphorylation of serine-79 and threonine-172) (AMPK): 3.4

COc1cccc(CNc2nc(C(C)C)nc3ccccc23)c1OC [Compound 322, (2,3-Dimethoxybenzyl)-(2-isopropylquinazolino-4-yl)-amine]
Glucose absorption (C2C12 muscle cells): 1.4 | AMPK activity (degree of phosphorylation of serine-79 and threonine-172) (AMPK): 1.9

CC(CO)Nc1nc(-c2ccccc2)nc2ccccc12 (stereo not shown) [Compound 112, 2-(2-Phenylquinazolino-4-ylamino)-propane-1-ol]
Glucose absorption (C2C12 muscle cells): 1.9 | AMPK activity (degree of phosphorylation of serine-79 and threonine-172) (AMPK): 1.7 | AMPK activity (class: degree of phosphorylation of threonine-172) (AMPK): strong (“strong” means that the degree of phosphorylation of threonine-172 increased by 3 times or more)

O=[N+]([O-])c1cccc(CNc2nc(-c3ccccc3)nc3ccccc23)c1 [Compound 116, (3-Nitrobenzyl)-(2-phenylquinazolino-4-yl)-amine]
Glucose absorption (C2C12 muscle cells): 2.5 | AMPK activity (degree of phosphorylation of serine-79 and threonine-172) (AMPK): 2.0 | AMPK activity (class: degree of phosphorylation of threonine-172) (AMPK): strong (“strong” means that the degree of phosphorylation of threonine-172 increased by 3 times or more)

CC(C)c1nc(NCCc2cccc(F)c2)c2ccccc2n1 [Compound 184, [2-(3-Fluorophenyl)-ethyl]-(2-isopropylquinazolino-4-yl)-amine]
Glucose absorption (C2C12 muscle cells): 3.2 | AMPK activity (degree of phosphorylation of serine-79 and threonine-172) (AMPK): 1.9 | AMPK activity (class: degree of phosphorylation of threonine-172) (AMPK): strong (“strong” means that the degree of phosphorylation of threonine-172 increased by 3 times or more)

CC(C)c1nc(NCc2cccc3ccccc23)c2ccccc2n1 [Compound 181, (2-Isopropylquinazolino-4-yl)-naphthaleno-1-ylmethylamine]
Glucose absorption (C2C12 muscle cells): 3.1 | AMPK activity (degree of phosphorylation of serine-79 and threonine-172) (AMPK): 3.1 | AMPK activity (class: degree of phosphorylation of threonine-172) (AMPK): strong (“strong” means that the degree of phosphorylation of threonine-172 increased by 3 times or more)

c1ccc(-c2nc(NCC(c3ccccc3)c3ccccc3)c3ccccc3n2)cc1 [Compound 133, (2,2-Diphenylethyl)-(2-phenylquinazolino-4-yl)-amine]
Glucose absorption (C2C12 muscle cells): 2.1 | AMPK activity (degree of phosphorylation of serine-79 and threonine-172) (AMPK): 1.3 | AMPK activity (class: degree of phosphorylation of threonine-172) (AMPK): mild (“mild” means that the degree of phosphorylation of threonine-172 increased by 1 to 3 times)

COc1ccccc1CNc1nc(Cc2ccccc2)nc2ccccc12 [Compound 328, (2-Benzylquinazolino-4-yl)-(2-methoxybenzyl)-amine]
Glucose absorption (C2C12 muscle cells): 1.4 | AMPK activity (degree of phosphorylation of serine-79 and threonine-172) (AMPK): 3.8

OCCOCCNc1nc(-c2ccccc2)nc2ccccc12 [Compound 1, 2-[2-(2-Phenylquinazolino-4-ylamino)-ethoxy]-ethanol]
Glucose absorption (C2C12 muscle cells): 1.7 | AMPK activity (degree of phosphorylation of serine-79) (AMPK): 6.0^a

FC(F)(F)c1ccc(CNc2nc(-c3ccccc3)nc3ccccc23)cc1 [Compound 139, (2-Phenylquinazolino-4-yl)-(4-trifluoromethylbenzyl)-amine]
Glucose absorption (C2C12 muscle cells): 2.5 | AMPK activity (degree of phosphorylation of serine-79 and threonine-172) (AMPK): 2.1 | AMPK activity (class: degree of phosphorylation of threonine-172) (AMPK): strong (“strong” means that the degree of phosphorylation of threonine-172 increased by 3 times or more)

Clc1ccc(CNc2nc(-c3ccccc3)nc3ccccc23)c(Cl)c1 [Compound 108, (2,4-Dichlorobenzyl)-(2-phenylquinazolino-4-yl)-amine]
Glucose absorption (C2C12 muscle cells): 2.2 | AMPK activity (degree of phosphorylation of serine-79 and threonine-172) (AMPK): 2.2 | AMPK activity (class: degree of phosphorylation of threonine-172) (AMPK): strong (“strong” means that the degree of phosphorylation of threonine-172 increased by 3 times or more)

Clc1ccccc1CCNc1nc(-c2ccccc2)nc2ccccc12 [Compound 151, [2-(2-Chlorophenyl)-ethyl]-(2-phenylquinazolino-4-yl)-amine]
Glucose absorption (C2C12 muscle cells): 1.3 | AMPK activity (degree of phosphorylation of serine-79 and threonine-172) (AMPK): 1.8 | AMPK activity (class: degree of phosphorylation of threonine-172) (AMPK): strong (“strong” means that the degree of phosphorylation of threonine-172 increased by 3 times or more)

Clc1ccccc1CNc1nc(-c2ccccc2)nc2ccccc12 [Compound 109, (2-Chlorobenzyl)-(2-phenylquinazolino-4-yl)-amine]
Glucose absorption (C2C12 muscle cells): 1.3 | AMPK activity (degree of phosphorylation of serine-79 and threonine-172) (AMPK): 1.9 | AMPK activity (class: degree of phosphorylation of threonine-172) (AMPK): strong (“strong” means that the degree of phosphorylation of threonine-172 increased by 3 times or more)

CCSc1nc(NCc2ccccc2)c2ccccc2n1 [Compound 22, Benzyl-(2-Ethylsulfanylquinazolino-4-yl)-amine]
Glucose absorption (C2C12 muscle cells): 2.6 | AMPK activity (class: degree of phosphorylation of threonine-172) (AMPK): strong (“strong” means that the degree of phosphorylation of threonine-172 increased by 3 times or more)

c1ccc(-c2nc(NCCN3CCOCC3)c3ccccc3n2)cc1 [Compound 106, (2-Morpholino-4-ylethyl)-(2-phenylquinazolino-4-yl)-amine]
Glucose absorption (C2C12 muscle cells): 1.8 | AMPK activity (degree of phosphorylation of serine-79 and threonine-172) (AMPK): 1.3 | AMPK activity (class: degree of phosphorylation of threonine-172) (AMPK): mild (“mild” means that the degree of phosphorylation of threonine-172 increased by 1 to 3 times)

CCCNc1nc(-c2ccccc2)nc2ccccc12 [Compound 61, (2-Phenylquinazolino-4-yl)-propylamine]
Glucose absorption (C2C12 muscle cells): 1.9 | AMPK activity (class: degree of phosphorylation of threonine-172) (AMPK): weak (“weak” means that the degree of phosphorylation of threonine-172 increased by less than 1 time)

COc1cc(CNc2nc(C(C)c3ccccc3)nc3ccccc23)cc(OC)c1OC (stereo not shown) [Compound 378, [2-(1-Phenylethyl)-quinazolino-4-yl]-(3,4,5-trimethoxybenzyl)-amine]
Glucose absorption (C2C12 muscle cells): 0.9 | AMPK activity (degree of phosphorylation of serine-79 and threonine-172) (AMPK): 4.7

CCCc1nc(NCc2ccc(OC)c(OC)c2)c2ccccc2n1 [Compound 399, (3,4-Dimethoxybenzyl)-(2-propylquinazolino-4-yl)-amine]
Glucose absorption (C2C12 muscle cells): 1.2 | AMPK activity (degree of phosphorylation of serine-79 and threonine-172) (AMPK): 4.9

CC(c1ccccc1)c1nc(NCc2ccc3c(c2)OCO3)c2ccccc2n1 (stereo not shown) [Compound 374, Benzo[1,3]dioxol-5-ylmethyl-[2-(1-phenylethyl)-quinazolino-4-yl]-amine]
Glucose absorption (C2C12 muscle cells): 1.1 | AMPK activity (degree of phosphorylation of serine-79 and threonine-172) (AMPK): 1.9

COc1ccccc1CNc1nc(N2CCCCC2)nc2ccccc12 [Compound 276, (2-Methoxybenzyl)-(2-piperidino-1-ylquinazolino-4-yl)-amine]
Glucose absorption (C2C12 muscle cells): 0.8 | AMPK activity (degree of phosphorylation of serine-79 and threonine-172) (AMPK): 1.9

CN1CCN(c2nc(NCc3ccc4c(c3)OCO4)c3ccccc3n2)CC1 [Compound 310, Benzo[1,3]dioxol-5-ylmethyl-[2-(4-methylpiperazino-1-yl)-quinazolino-4-yl]-amine]
Glucose absorption (C2C12 muscle cells): 0.9 | AMPK activity (degree of phosphorylation of serine-79 and threonine-172) (AMPK): 1.6

c1ccc2c(NCc3ccc4c(c3)OCO4)nc(N3CCCCC3)nc2c1 [Compound 308, Benzo[1,3]dioxol-5-ylmethyl-(2-piperidino-1-ylquinazolino-4-yl)-amine]
Glucose absorption (C2C12 muscle cells): 0.8 | AMPK activity (degree of phosphorylation of serine-79 and threonine-172) (AMPK): 2.2

Cc1nc(NCc2cccc(C(F)(F)F)c2)c2ccccc2n1 [Compound 166, (2-Methylquinazolino-4-yl)-(3-trifluoromethylbenzyl)-amine]
Glucose absorption (C2C12 muscle cells): 2.8 | AMPK activity (degree of phosphorylation of serine-79 and threonine-172) (AMPK): 3.8 | AMPK activity (class: degree of phosphorylation of threonine-172) (AMPK): strong (“strong” means that the degree of phosphorylation of threonine-172 increased by 3 times or more)

COc1cccc(CNc2nc(C(OC)c3ccccc3)nc3ccccc23)c1 (stereo not shown) [Compound 361, (3-Methoxybenzyl)-[2-(methoxyphenylmethyl)-quinazolino-4-yl]-amine]
Glucose absorption (C2C12 muscle cells): 1.3 | AMPK activity (degree of phosphorylation of serine-79 and threonine-172) (AMPK): 2.1

c1ccc(-c2nc(NCc3cccnc3)c3ccccc3n2)cc1 [Compound 111, (2-Phenylquinazolino-4-yl)-pyridino-3-ylmethylamine]
Glucose absorption (C2C12 muscle cells): 2.4 | AMPK activity (degree of phosphorylation of serine-79 and threonine-172) (AMPK): 1.8 | AMPK activity (class: degree of phosphorylation of threonine-172) (AMPK): strong (“strong” means that the degree of phosphorylation of threonine-172 increased by 3 times or more)

Reference: patent US20080207614A1, “QUINAZOLINE DERIVATIVES FOR THE TREATMENT AND PREVENTION OF DIABETES AND OBESITY” (SK CHEMICALS CO., LTD., priority 2004, published 2008)
